Reference: patent US20210283107A1, “Methods to Expand the Spectrum of Gram-Positive Antibiotics” (NORTH CAROLINA STATE UNIVERSITY, priority 2016, published 2021)
In brackets after ≈: the same amount, converted by molar mass.

The compounds below were run on A. baumannii strain 5075 (AB5075) (assay: Broth microdilution MIC determination of compound alone). Details: Acinetobacter baumannii; compound alone; AB5075; read-out: MIC.
Assay type: cell-based
Method: Our initial screening began by testing a diverse selection of 2-AI compounds from our internal library for their minimal inhibitory concentrations (MIC) against A. baumannii isolate 5075.
Day Cultures (6 h) were subcultured to 5×10^5 CFU/mL in cation adjusted Mueller-Hinton broth (CAMHB). Aliquots (1 mL) were placed in culture tubes, and compound was added from 100 mM stock solutions, such that the compound concentration equaled the highest concentration tested (200 μM or 64 μg/mL). Samples were then aliquoted (200 μL) into the first row of wells of a 96-well plate, with all remaining wells being filled with 100 μL of initial bacterial subculture. The wells in row one were mixed five times before 100 μL was transferred to the following row (row two). Row two was then mixed five times, and 100 μL was transferred to row three. This processed was repeated until the final row had been mixed. This process provided a serial dilution of the compound. Plates were covered with Glad Press n'Seal and were incubated under stationary conditions at 37° C. for 16 hours. MIC values were recorded as the lowest concentration at which no bacterial growth was observed.

| Compound | MIC |
| --- | --- |
| CCCCCCc1ccc(-c2c[nH]c(N)n2)cc1 | 100 µM (≈ 24.3 µg/mL) |
| Nc1nc(CCCNC(=O)c2cc(Br)c(Br)[nH]2)c[nH]1 | > 200 µM |
| CCCCCCC(CCCCCC)NC(=O)CCCc1c[nH]c(N)n1 | 100 µM (≈ 35.1 µg/mL) |
| CCCCCCC(=O)Nc1ccc2[nH]c(N)nc2c1 | > 200 µM |
| Nc1nc2cc(NC(=O)c3c(F)c(F)c(F)c(F)c3F)ccc2[nH]1 | > 200 µM |
| Cc1ccc(C(=O)Nc2ccc3[nH]c(N)nc3c2)cc1 | > 200 µM |
| C/C(=C\c1ccccc1)CNC(=O)Cn1cc(CCCCCc2c[nH]c(N)n2)nn1 | > 200 µM |
| CCCCCCCCCC(=O)NCCn1cc(CCCCCc2c[nH]c(N)n2)nn1 | > 200 µM |
| Nc1nc(CCCCCc2cn(-c3ccc(C(=O)NCCc4ccccc4)cc3)nn2)c[nH]1 | > 200 µM |
| CCCCCCC/C=C\CCCCCCCc1c[nH]c(N)n1 | > 200 µM |

What follows are compounds tested on A. baumannii strain 5075 (AB5075) (assay: Macrolide sensitization / antibiotic resensitization: antibiotic MIC in presence of compound (broth microdilution)). Details: Acinetobacter baumannii; antibiotic alone, no compound (control row); AB5075; read-out: MIC (μg/mL) of the antibiotic.
Assay type: cell-based, Acinetobacter baumannii
Method: A. baumannii 5075 was plated on LB agar, then grown in CAMHB for 6-8 h and this culture was used to inoculate fresh CAMHB (5×10^5 CFU/mL). The resulting suspension was aliquoted (5 mL) into culture tubes and compound, from 100 mM DMSO stock, was added. One aliquot was not treated (control). 1 mL of each sample was transferred to a new culture tube and antibiotic was added. Rows 2-12 of a 96-well microtiter plate were filled with 100 μL/well from the remaining 4 mL bacterial subcultures, allowing the concentration of compound to be kept uniform throughout the antibiotic dilution procedure. Samples containing antibiotic were aliquoted (200 μL) into the corresponding first row wells of the microtiter plate. Row 1 wells were mixed 6 to 8 times then 100 μL was withdrawn and transferred to row 2. Row 2 wells were mixed 6 to 8 times, followed by a 100 μL transfer from row 2 to row 3. This procedure was repeated to serially dilute the rest of the rows of the microtiter plate, with the exception of the final row, to which no antibiotic was added (to check for growth of bacteria in the presence of compound alone). The microtiter plate was then covered, placed in a covered damp plastic container and incubated under stationary conditions at 37° C. After 16-18 hrs minimum inhibitory concentration (MIC) values were recorded as the lowest concentration of antibiotic at which there was no visible growth of bacteria. Experiments were carried out in duplicate each time and repeated at least twice.
The difference in antibiotic MIC between the control (no compound) sample, and the samples containing each compound was recorded as the fold-reduction.
Day Cultures (6 h) were subcultured to 5×10^5 CFU/mL in cation adjusted Mueller-Hinton broth (CAMHB). […] One milliliter of the resulting solution was aliquoted into a separate culture tube and was dosed with antibiotic so that the resulting concentration was the highest desirable concentration to be tested. Bacteria treated with antibiotic alone were used as a control. Row one of a 96-well plate was filled with 200 μL of the antibiotic/compound solution, and the remaining rows were filled with 100 μL of the remaining 4 mL bacterial subculture. The wells in row one were mixed five times before 100 μL was transferred to the following row (row two). Row two was then mixed five times, and 100 μL was transferred to row three. This process was repeated until the second to last row had been reached. The last row is left unexposed to antibiotic in order to serve as a negative control. The antibiotic only treated bacteria was plated by aliquoting 200 μL of the treated bacteria into row one and filling the remaining rows with untreated bacteria from the original bacteria subculture. The rows were mixed in the same way as described above. Plates were covered with Glad Press n'Seal and were incubated under stationary conditions at 37° C. for 16 hours. MIC values were recorded as the lowest concentration at which no bacterial growth was observed. Fold reductions were determined by comparison of the compound treated wells with the antibiotic only treated control wells.

| Compound | MIC |
| --- | --- |
| CCCCCCCCCC(=O)N[C@@H](Cc1c[nH]c2ccccc12)C(=O)N[C@H](CC(N)=O)C(=O)N[C@@H](CC(=O)O)C(=O)N[C@@H]1C(=O)NCC(=O)N[C@@H](CCCN)C(=O)N[C@@H](CC(=O)O)C(=O)N[C@H](C)C(=O)N[C@@H](CC(=O)O)C(=O)NCC(=O)N[C@H](CO)C(=O)N[C@@H]([C@H](C)CC(=O)O)C(=O)N[C@@H](CC(=O)c2ccccc2N)C(=O)O[C@@H]1C [Daptomycin, reference compound] | 2050 µg/mL |
| NC[C@H]1O[C@H](O[C@H]2[C@H](O)[C@@H](O[C@H]3O[C@H](CO)[C@@H](O)[C@H](N)[C@H]3O)[C@H](N)C[C@@H]2N)[C@H](O)[C@@H](O)[C@@H]1O [Kanamycin, reference compound] | > 512 µg/mL |
| CC(=O)NC[C@H]1CN(c2ccc(N3CCOCC3)c(F)c2)C(=O)O1 [Linezolid, linezolid, reference compound] | 256 µg/mL |
| [H]/N=C(/N)N[C@H]1[C@H](O)[C@@H](O)[C@H](O[C@@H]2O[C@@H](C)[C@](O)(C=O)[C@H]2O[C@@H]2O[C@@H](CO)[C@H](O)[C@@H](O)[C@@H]2NC)[C@@H](N/C(N)=N\[H])[C@@H]1O [Streptomycin, reference compound] | > 512 µg/mL |
| NC[C@H]1O[C@H](O[C@H]2[C@H](O)[C@@H](O[C@H]3O[C@H](CO)[C@@H](O)[C@H](N)[C@H]3O)[C@H](N)C[C@@H]2N)[C@H](N)C[C@@H]1O [Tobramycin, reference compound] | 256 µg/mL |
| CO[C@H]1C[C@H](O[C@H]2[C@H](C)[C@@H](O[C@@H]3O[C@H](C)C[C@H](N(C)C)[C@H]3OC(C)=O)[C@@H](C)C[C@@]3(CO3)C(=O)[C@H](C)[C@@H](OC(C)=O)[C@@H](C)[C@@H](C)OC(=O)[C@@H]2C)O[C@@H](C)[C@@H]1OC(C)=O [Troleandomycin, troleandomycin, reference compound] | > 512 µg/mL |

Same assay, conditions: antibiotic alone, no compound (control row); AB5075

| Compound | MIC (μg/mL) of the antibiotic |
| --- | --- |
| NCC[C@H](O)C(=O)N[C@@H]1C[C@H](N)[C@@H](O[C@H]2O[C@H](CN)[C@@H](O)[C@H](O)[C@H]2O)[C@H](O)[C@H]1O[C@H]1O[C@H](CO)[C@@H](O)[C@H](N)[C@H]1O [Amikacin, reference compound] | 128 µg/mL |
| CO[C@@H]1[C@@H](O[C@@H]2O[C@H](C)[C@@H](O[C@H]3C[C@@](C)(O)[C@@H](OC(=O)CC(C)C)[C@H](C)O3)[C@H](N(C)C)[C@H]2O)[C@@H](CC=O)C[C@@H](C)[C@@H](O)/C=C/C=C/C[C@@H](C)OC(=O)C[C@H]1OC(C)=O [Josamycin, josamycin, reference compound] | 128 µg/mL |
| CO[C@H]1C[C@H](O[C@H]2[C@H](C)[C@@H](O[C@@H]3O[C@H](C)C[C@H](N(C)C)[C@H]3O)[C@@H](C)C[C@@]3(CO3)C(=O)[C@H](C)[C@@H](O)[C@@H](C)[C@@H](C)OC(=O)[C@@H]2C)O[C@@H](C)[C@@H]1O [Oleandomycin, oleandomycin, reference compound] | 256 µg/mL |
| Gentamicin [reference compound] | >512 µg/mL |
| Neomycin [reference compound] | 64 µg/mL |
| colistin [reference compound] | 0.5 µg/mL |
| spiramycin [reference compound] | >512 µg/mL |
